Type: physicochemical
Method: Insgesamt wurden 4.21 mg UDP-LacNAc isoliert (Gesamtausbeute: 5.2%). Die Substanz ist mindestens 6 Monate bei -20°C stabil. UDP-LacNAc wurde durch NMR-Spektroskopie und Massenspektrometrie charakterisiert. (Fig.1-4)

## Gal(β1-4)GlcNAc(α1-UDP [UDP-LacNAc]
  stabil: ≥ 6 Monate
